Experimental data as given in ChEMBL document CHEMBL5584355, “Harnessing Nitric Oxide-Donating Benzofuroxans for Targeted Inhibition of Carbonic Anhydrase IX in Cancer” (J Med Chem, 2024).

What was measured:
Carbonic anhydrase 9 = Carbonic anhydrase 9 (Homo sapiens, UniProt Q16790); assay: Inhibition of human recombinant CA9 by phenol red dye based stopped flow CO2 hydration assay
Carbonic anhydrase 1 = Carbonic anhydrase 1 (Homo sapiens, UniProt P00915); assay: Inhibition of human recombinant CA1 by phenol red dye based stopped flow CO2 hydration assay
Chain of Carbonic anhydrase 1 (P00915 whole entry): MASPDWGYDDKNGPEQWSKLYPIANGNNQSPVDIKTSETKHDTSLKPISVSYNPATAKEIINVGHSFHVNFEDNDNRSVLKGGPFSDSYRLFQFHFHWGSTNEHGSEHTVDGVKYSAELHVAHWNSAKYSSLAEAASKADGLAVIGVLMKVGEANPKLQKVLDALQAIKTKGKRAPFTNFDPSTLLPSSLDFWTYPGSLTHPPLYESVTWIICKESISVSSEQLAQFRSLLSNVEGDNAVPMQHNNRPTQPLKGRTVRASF

Carbonic anhydrase 12 = Carbonic anhydrase 12 (Homo sapiens, UniProt O43570); assay: Inhibition of human recombinant CA12 by phenol red dye based stopped flow CO2 hydration assay
Chain of Carbonic anhydrase 12 (O43570 whole entry): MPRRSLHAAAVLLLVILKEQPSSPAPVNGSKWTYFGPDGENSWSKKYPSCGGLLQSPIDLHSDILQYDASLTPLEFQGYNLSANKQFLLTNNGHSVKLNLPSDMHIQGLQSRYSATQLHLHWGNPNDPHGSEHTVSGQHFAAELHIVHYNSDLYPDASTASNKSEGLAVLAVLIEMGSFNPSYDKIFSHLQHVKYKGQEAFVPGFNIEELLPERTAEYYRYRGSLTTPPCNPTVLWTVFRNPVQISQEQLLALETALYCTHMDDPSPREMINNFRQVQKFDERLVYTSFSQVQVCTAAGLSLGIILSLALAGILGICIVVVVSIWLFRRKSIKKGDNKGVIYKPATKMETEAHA

Carbonic anhydrase 2 = Carbonic anhydrase 2 (Homo sapiens, UniProt P00918); assay: Inhibition of human recombinant CA2 by phenol red dye based stopped flow CO2 hydration assay
[1] = Toxicity in female C57BL6/J mouse assessed as hematic pH at 10 mg/kg, ip administered daily for 2 weeks and measured 1 hr post last dose (reference value: 7.1); type: organism-based; settings: in vivo, 336 h
HEK293 [2] = assay: Cytotoxicity against HEK293 cells assessed as inhibition of cell growth at 46 uM by celltiter-glo assay; type: toxicity, cell-based; settings: human, hek293, 46 µM
HEK293 [3] = assay: Cytotoxicity against HEK293 cells assessed as inhibition of cell growth at 77 uM by celltiter-glo assay; type: toxicity, cell-based; settings: human, hek293, 77 µM

Ki (Carbonic anhydrase 9) [nM] | Ki (Carbonic anhydrase 1) [nM] | SMILES | also measured
2650 | > 10000 | O=C(O)c1ccc2c(c1)no[n+]2[O-] | Ki (Carbonic anhydrase 12): 995 nM; Ki (Carbonic anhydrase 2): 8730 nM
48.5 | – | O=C(OCCCOc1ccc2oc(=O)ccc2c1)c1ccc2c(c1)no[n+]2[O-] | –
112 | > 10000 | O=C(OCCOc1ccc2ccc(=O)oc2c1)c1ccc2c(c1)no[n+]2[O-] | –
37.9 | 83.1 | NS(=O)(=O)c1ccc(CNC(=O)c2ccc3c(c2)no[n+]3[O-])cc1 | –
20.3 | – | N#CCCN(CCc1ccc(S(N)(=O)=O)cc1)C(=O)c1ccc2c(c1)no[n+]2[O-] | –
10.4 | 618 | NS(=O)(=O)c1ccc(CCN(Cc2ccccc2)C(=O)c2ccc3c(c2)no[n+]3[O-])cc1 | pH [1]: 6.9; Activity (HEK293 [2]): Non-Toxic
38.7 | 736 | NS(=O)(=O)c1ccc(OC(=O)c2ccc3c(c2)no[n+]3[O-])cc1 | –
41.5 | 7660 | NS(=O)(=O)c1cccc(NC(=O)c2ccc3c(c2)no[n+]3[O-])c1 | –
61.1 | 8450 | NS(=O)(=O)c1ccc(O)c(NC(=O)c2ccc3c(c2)no[n+]3[O-])c1 | –
12.6 | 445 | NS(=O)(=O)c1ccc(CCNC(=O)c2ccc3c(c2)no[n+]3[O-])cc1 | Ki (Carbonic anhydrase 12): 26.1 nM; Ki (Carbonic anhydrase 2): 90.1 nM
23.1 | 602 | NS(=O)(=O)c1ccc(CCN(Cc2ccco2)C(=O)c2ccc3c(c2)no[n+]3[O-])cc1 | –
304 | – | O=C(Oc1ccc2ccc(=O)oc2c1)c1ccc2c(c1)no[n+]2[O-] | –
– | > 10000 | O=C(OCCCOc1ccc2ccc(=O)oc2c1)c1ccc2c(c1)no[n+]2[O-] | –
69.7 | 792 | NS(=O)(=O)c1ccc(NC(=O)c2ccc3c(c2)no[n+]3[O-])cc1 | –
23.6 | – | O=C(NCCOc1ccc2oc(=O)ccc2c1)c1ccc2c(c1)no[n+]2[O-] | –
– | > 10000 | O=C(NCCOc1ccc2ccc(=O)oc2c1)c1ccc2c(c1)no[n+]2[O-] | –
14.9 | 831 | NS(=O)(=O)c1ccc(CCN(CCc2ccccc2)C(=O)c2ccc3c(c2)no[n+]3[O-])cc1 | –
15.8 | > 10000 | O=C(Oc1ccc2oc(=O)ccc2c1)c1ccc2c(c1)no[n+]2[O-] | –
– | – | NS(=O)(=O)c1ccc(CCN(Cc2ccc(F)cc2)C(=O)c2ccc3c(c2)no[n+]3[O-])cc1 | Activity (HEK293 [3]): Non-Toxic
– | – | NS(=O)(=O)c1cc(C(=O)O)c(NCc2ccco2)cc1Cl [FUROSEMIDE] | pH [1]: 7.05
